Results from patent publication US11053204B2, “Pyrimidinyloxy benzene derivatives as herbicides” (FMC Corporation, priority 2015, dated 2021).

Assays:
Assay type in all cases: in vivo
[1] = tested on: barnyardgrass (Echinochloa crus-galli); test: Test A preemergence, visual injury rating; conditions: 0 to 100 scale (0 no effect, 100 complete control)
Method in brief: (§1)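 Scoring: eye-based comparison with untreated controls, 0 for no effect through 100 for complete control, at about day 10. Treatments: directed soil spray preemergence; foliar spray postemergence on 2–10 cm plants at the one- to two-leaf stage. Medium: loam soil with sand.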

corn (Zea mays) [2] = test: Test A preemergence, visual injury rating; conditions: 0 to 100 scale (0 no effect, 100 complete control)
Method in brief: as §1

[3] = tested on: giant foxtail (Setaria faberii); test: Test A preemergence, visual injury rating; conditions: 0 to 100 scale (0 no effect, 100 complete control)
Method in brief: as §1

[4] = tested on: large (Lg) crabgrass (Digitaria sanguinalis); test: Test A preemergence, visual injury rating; conditions: 0 to 100 scale (0 no effect, 100 complete control)
Method in brief: as §1

[5] = tested on: morningglory (Ipomoea spp.); test: Test A preemergence, visual injury rating; conditions: 0 to 100 scale (0 no effect, 100 complete control)
Method in brief: as §1

[6] = tested on: pigweed (Amaranthus retroflexus); test: Test A preemergence, visual injury rating; conditions: 0 to 100 scale (0 no effect, 100 complete control)
Method in brief: as §1

[7] = tested on: velvetleaf (Abutilon theophrasti); test: Test A preemergence, visual injury rating; conditions: 0 to 100 scale (0 no effect, 100 complete control)
Method in brief: as §1

[8] = tested on: wheat (Triticum aestivum); test: Test A preemergence, visual injury rating; conditions: 0 to 100 scale (0 no effect, 100 complete control)
Method in brief: as §1

[9] = tested on: barnyardgrass (Echinochloa crus-galli); test: Test A postemergence, visual injury rating; conditions: 0 is no effect, 100 is complete control
Method in brief: as §1

corn (Zea mays) [10] = test: Test A postemergence, visual injury rating; conditions: 0 is no effect, 100 is complete control
Method in brief: as §1

[11] = tested on: giant foxtail (Setaria faberii); test: Test A postemergence, visual injury rating; conditions: 0 is no effect, 100 is complete control
Method in brief: as §1

[12] = tested on: large (Lg) crabgrass (Digitaria sanguinalis); test: Test A postemergence, visual injury rating; conditions: 0 is no effect, 100 is complete control
Method in brief: as §1

[13] = tested on: morningglory (Ipomoea spp.); test: Test A postemergence, visual injury rating; conditions: 0 is no effect, 100 is complete control
Method in brief: as §1

[14] = tested on: pigweed (Amaranthus retroflexus); test: Test A postemergence, visual injury rating; conditions: 0 is no effect, 100 is complete control
Method in brief: as §1

[15] = tested on: velvetleaf (Abutilon theophrasti); test: Test A postemergence, visual injury rating; conditions: 0 is no effect, 100 is complete control
Method in brief: as §1

[16] = tested on: wheat (Triticum aestivum); test: Test A postemergence, visual injury rating; conditions: 0 is no effect, 100 is complete control
Method in brief: as §1

[17] = tested on: barnyardgrass (Echinochloa crus-galli); test: Test B flooded paddy test, plant response rating; conditions: 250 g ai/ha; Flood; scale of 0 to 100 where 0 is no effect and 100 is complete control; 13 to 15 days
Method in brief: (§2)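 Under a constant 3 cm flood, test compounds went directly into the paddy water. Following 13 to 15 days of greenhouse growth, treated species and controls were compared by eye.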

[18] = tested on: ducksalad (Heteranthera limosa); test: Test B flooded paddy test, plant response rating; conditions: 250 g ai/ha; Flood; scale of 0 to 100 where 0 is no effect and 100 is complete control; 13 to 15 days
Method in brief: as §2

rice (Oryza sativa) = test: Test B flooded paddy test, plant response rating; conditions: 250 g ai/ha; Flood; scale of 0 to 100 where 0 is no effect and 100 is complete control; 13 to 15 days
Method in brief: as §2

[19] = tested on: sedge, umbrella (small-flower umbrella sedge, Cyperus difformis); test: Test B flooded paddy test, plant response rating; conditions: 250 g ai/ha; Flood; scale of 0 to 100 where 0 is no effect and 100 is complete control; 13 to 15 days
Method in brief: as §2

Question: With `O=C(NCC(F)(F)F)c1ccccc1Oc1ncc(Cl)cn1` [Compound 28, 2-[(5-chloro-2-pyrimidinyl)oxy]-N-(2,2,2-trifluoroethyl)benzamide] as the compound, how does the pest or weed control at 500 g/ha ([1]; Echinochloa crus-galli, pre-emergence, 240 h, 500 g ai/ha, read-out: Barnyardgrass plant response rating) read?
Answer: 20%

Question: What about the “Corn plant response rating” value (corn (Zea mays) [2]; 500 g ai/ha) of the same compound?
Answer: 0

Question: And the pest or weed control at 500 g/ha ([3]; Setaria faberi, pre-emergence, 240 h, 500 g ai/ha, read-out: Foxtail, Giant plant response rating)?
Answer: 20%

Question: And the “Crabgrass, Large plant response rating” value ([4]; 500 g ai/ha)?
Answer: 50

Question: And the “Morningglory plant response rating” value ([5]; 500 g ai/ha)?
Answer: 0

Question: And the pest or weed control at 500 g/ha ([6]; Amaranthus retroflexus, pre-emergence, 240 h, 500 g ai/ha, read-out: Pigweed plant response rating)?
Answer: 80%

Question: What about the “Velvetleaf plant response rating” value ([7]; 500 g ai/ha) of the same compound?
Answer: 20

Question: What about the “Wheat plant response rating” value ([8]; 500 g ai/ha) of the same compound?
Answer: 0

Question: What about the pest or weed control at 500 g/ha ([9]; Echinochloa crus-galli, post-emergence, 240 h, 500 g ai/ha, read-out: Barnyardgrass plant response rating (0 to 100 scale)) of the same compound?
Answer: 20%

Question: And the plant injury at 500 g/ha (corn (Zea mays) [10]; Zea mays, post-emergence, 240 h, 500 g ai/ha, read-out: Corn plant response rating (0 to 100 scale))?
Answer: 0%

Question: And the pest or weed control at 500 g/ha ([11]; Setaria faberi, post-emergence, 240 h, 500 g ai/ha, read-out: Foxtail, Giant plant response rating (0 to 100 scale))?
Answer: 0%

Question: What about the “Crabgrass, Large plant response rating (0 to 100 scale)” value (“Crabgrass … (0 to 100 scale)” for short) ([12]; 500 g ai/ha) of the same compound?
Answer: 0

Question: And the “Morningglory plant response rating (0 to 100 scale)” value ([13]; 500 g ai/ha)?
Answer: 0

Question: What about the pest or weed control at 500 g/ha ([14]; Amaranthus retroflexus, post-emergence, 240 h, 500 g ai/ha, read-out: Pigweed plant response rating (0 to 100 scale)) of the same compound?
Answer: 20%

Question: And the “Velvetleaf plant response rating (0 to 100 scale)” value ([15]; 500 g ai/ha)?
Answer: 30

Question: What about the plant injury at 500 g/ha ([16]; Triticum aestivum, post-emergence, 240 h, 500 g ai/ha, read-out: Wheat plant response rating (0 to 100 scale)) of the same compound?
Answer: 0%

Question: `O=C(NCC(F)(F)F)c1ccccc1Oc1ncc(Br)cn1` [Compound 27] was tested. Which “Barnyardgrass plant response rating” value ([1]; 500 g ai/ha) did it give?
Answer: 0

Question: What about the “Corn plant response rating” value (corn (Zea mays) [2]; 500 g ai/ha) of the same compound?
Answer: 0

Question: What about the “Foxtail, Giant plant response rating” value ([3]; 500 g ai/ha) of the same compound?
Answer: 0

Question: And the “Crabgrass, Large plant response rating” value ([4]; 500 g ai/ha)?
Answer: 0

Question: What about the “Morningglory plant response rating” value ([5]; 500 g ai/ha) of the same compound?
Answer: 0

Question: And the “Pigweed plant response rating” value ([6]; 500 g ai/ha)?
Answer: 0

Question: What about the “Velvetleaf plant response rating” value ([7]; 500 g ai/ha) of the same compound?
Answer: 0

Question: And the “Wheat plant response rating” value ([8]; 500 g ai/ha)?
Answer: 0

Question: And the “Barnyardgrass plant response rating (0 to 100 scale)” value ([9]; 500 g ai/ha)?
Answer: 0

Question: What about the “Corn plant response rating (0 to 100 scale)” value (corn (Zea mays) [10]; 500 g ai/ha) of the same compound?
Answer: 0

Question: What about the “Foxtail, Giant plant response rating (0 to 100 scale)” value ([11]; 500 g ai/ha) of the same compound?
Answer: 0

Question: What about the “Crabgrass … (0 to 100 scale)” value ([12]; 500 g ai/ha) of the same compound?
Answer: 0

Question: What about the “Morningglory plant response rating (0 to 100 scale)” value ([13]; 500 g ai/ha) of the same compound?
Answer: 0

Question: What about the “Pigweed plant response rating (0 to 100 scale)” value ([14]; 500 g ai/ha) of the same compound?
Answer: 0

Question: And the “Velvetleaf plant response rating (0 to 100 scale)” value ([15]; 500 g ai/ha)?
Answer: 0

Question: And the “Wheat plant response rating (0 to 100 scale)” value ([16]; 500 g ai/ha)?
Answer: 0

Question: How did the “Barnyardgrass plant response rating” value ([1]; 1000 g ai/ha) turn out when `CC(=NOCc1ccccc1)c1ccccc1Oc1ncc(Cl)cn1` [Compound 58] was run?
Answer: 90

Question: What about the “Corn plant response rating” value (corn (Zea mays) [2]; 1000 g ai/ha) of the same compound?
Answer: 20

Question: And the “Foxtail, Giant plant response rating” value ([3]; 1000 g ai/ha)?
Answer: 100

Question: And the “Crabgrass, Large plant response rating” value ([4]; 1000 g ai/ha)?
Answer: 100

Question: What about the “Morningglory plant response rating” value ([5]; 1000 g ai/ha) of the same compound?
Answer: 0

Question: What about the “Pigweed plant response rating” value ([6]; 1000 g ai/ha) of the same compound?
Answer: 50

Question: What about the “Velvetleaf plant response rating” value ([7]; 1000 g ai/ha) of the same compound?
Answer: 20

Question: What about the “Wheat plant response rating” value ([8]; 1000 g ai/ha) of the same compound?
Answer: 20

Question: And the “Barnyardgrass plant response rating (0 to 100 scale)” value ([9]; 1000 g ai/ha)?
Answer: 40

Question: And the “Corn plant response rating (0 to 100 scale)” value (corn (Zea mays) [10]; 1000 g ai/ha)?
Answer: 30

Question: What about the “Foxtail, Giant plant response rating (0 to 100 scale)” value ([11]; 1000 g ai/ha) of the same compound?
Answer: 60

Question: And the “Crabgrass … (0 to 100 scale)” value ([12]; 1000 g ai/ha)?
Answer: 80

Question: What about the “Morningglory plant response rating (0 to 100 scale)” value ([13]; 1000 g ai/ha) of the same compound?
Answer: 30

Question: And the “Pigweed plant response rating (0 to 100 scale)” value ([14]; 1000 g ai/ha)?
Answer: 100

Question: What about the “Velvetleaf plant response rating (0 to 100 scale)” value ([15]; 1000 g ai/ha) of the same compound?
Answer: 90

Question: What about the “Wheat plant response rating (0 to 100 scale)” value ([16]; 1000 g ai/ha) of the same compound?
Answer: 20

Question: And the “Plant response rating, Barnyardgrass” value [17]?
Answer: 0

Question: What about the “Plant response rating, Ducksalad” value [18] of the same compound?
Answer: 0

Question: What about the “Plant response rating, Rice” value (rice (Oryza sativa)) of the same compound?
Answer: 0

Question: And the “Plant response rating, Sedge, Umbrella” value [19]?
Answer: 0
